Test [1] concerns U-87MG (human glioblastoma). As to the kind of experiment: Cell death by PI staining and flow cytometry (FACS), U-87MG. Format: cell-based. To be noted: U-87MG cells. As for the experimental part:
MEC-1 cells were incubated in a serum-free medium with various concentrations of VDAC1-based peptides for 1.5 h at room temperature (RT), collected by centrifugation, washed with phosphate-buffered saline (PBS), and analyzed for cell death. Adherent cancer cells were seeded in culture plates and allowed to adhere overnight in a sterile cell culture incubation chamber maintained at 37 °C and 5% CO2. The next day, media was removed from the plates, and cells were treated with various concentrations of VDAC1-based peptides for the indicated time in serum-free Dulbecco’s Modified Eagle Medium (DMEM) with and without DMSO (final 0.15%) as a control for 6 h at 37 °C and 5% CO2. Cells were trypsinized, centrifuged (1500× g, 5 min), and washed with PBS.
Cell death was analyzed by the propidium iodide (PI) staining, followed by flow cytometry with the iCyt sy3200 Benchtop Cell Sorter/Analyzer and analysis with EC800 v 1.3.7 software (Sony Biotechnology Inc., San Jose, CA, USA). Apoptosis was analyzed by PI and annexin V-FITC staining, which was carried out according to the manufacturer’s instructions with minor modifications. U-87MG cells, untreated (control) or treated with various concentrations of VDAC1-based peptides, were harvested and washed once with binding buffer (10 mM HEPES/NaOH, pH 7.4, 140 mM NaCl, and 2.5 mM CaCl2). […] Next, cells were washed and PI (6.25 μg/mL), was added immediately before flow cytometry At least 10,000 events were collected, recorded on a dot plot, and analyzed by flow cytometry.
Figure 1 VDAC1-based peptides induced cell death in various cancer cell lines. […] (E) Human cervix adenocarcinoma (HeLa) (▲) and human glioblastoma (U-87MG) (●, ○) cell lines were incubated 6 h with the indicated concentrations of D-Δ(1-18)N-Ter-Antp peptide and analyzed for cell death PI staining and flow cytometry (o,▲) or FITC–annexin V/PI staining and flow cytometry analysis (●). (F) U-87MG cells were treated with 10 µM (○), 20 µM (●) or without (Δ) of D-Δ(1-18)N-Ter-Antp peptide for the indicated times, and cell death was analyzed by PI staining and flow cytometry. […]

For another test, the system named is U-87MG cells. The experiment in a line: Cell morphology / cell size by light microscopy. Format: cell-based, human. To be noted: 16 h treatment. The procedure: Cells were seeded in a 6-well plates, treated with D-Δ(1-18)N-Ter-Antp peptide for 24 h, and monitored with the Holomonitor live cell imaging system (Holographic Imaging, Lund, Sweden) for 24 h at 37 °C and 5% CO2 or with a microscope (LX2-KSP; Olympus, Shinjuku, Tokyo, Japan), with images captured by a CCD camera.
Figure 2 D-Δ(1-18)N-Ter-Antp-induced changes in cell morphology and cell membrane permeability. (A,B) U-87MG cells were treated with the indicated concentrations of D-Δ(1-18)N-Ter-Antp peptide for 16 h, and cell morphology was monitored by light microscope (A). Quantification of cell size (B). (C,D) U-87MG cells were untreated or treated with 10 μM of D-Δ(1-18)N-Ter-Antp peptide or N-TerΔ(21-26)-Antp for 24 h, and cell morphology was monitored by light microscope (C). Quantification of cell size (D). (E,F) Cells were stained with anti-vinculin antibodies, followed by secondary anti-mouse-cy3 antibodies. Scale bars are 20 μm. White arrows point to focal adhesion (E). Quantification of vinculin staining intensity (F). (G) D-Δ(1-18)N-Ter-Antp-induced cell membrane permeability changes in HeLa cells. Cells were treated with D-Δ(1-18)N-Ter-Antp peptide (10 µM) for 6 h and subjected to FM4-64 dye staining. Yellow arrows point to apoptotic cells with apoptotic bodies. (H) Quantification of fluorescence intensity of FM4-64. * p < 0.05, *** p < 0.001, **** p < 0.0001 (n = 3). […]

For “19-FTKGYGFGL-26- RQIKIWFQNRRMKWKK [D-Δ(1-18)N-Ter-Antp]”, in test [1] (3-h incubation, 10 or 20 µM tested (Figure 1F), PI staining), the “Cell death in time course” value was “about 70%”. In test [1] (6 h), the “Maximal cell death (at the concentration for maximal cell death)” value was found to be 70%. The IC50 in test [1] (6 h incubation, serum-free medium, PI staining and FACS, read-out: IC50, peptide concentration required for half-maximal cell death activity) is 6 µM. Also, the “Enlarged cell area relative to untreated cells” value in the test with U-87MG cells is listed as “up to 3 fold”.

The values above are taken from paper PMC9599717, “The Multicellular Effects of VDAC1 N-Terminal-Derived Peptide” (Biomolecules, 2022).
